Source: patent publication US20170321282A1, “IMPROVED TREATMENTS OF CANCER RESISTANT TO TAXOIDS” (INSTITUT GUSTAVE ROUSSY, priority 2014, published 2017)

How the values were obtained:
[1] = test system: resistant IGR-CaP1-R100 cells; assay: Colony formation (clonogenicity) assay, docetaxel-resistant cells; format: cell-based, human; settings: 25 μM LY2157299 alone, 72 h pretreatment, stained 2 weeks later
Experimental: (§1) Colony formation assay. Cells were pretreated with 25 μM LY2157299 or vehicle for 72 hours. Then, cells were treated with Docetaxel and/or 25 μM LY2157299, control cells were treated with vehicle. Docetaxel was used at 12 nM in parental IGR-CaP1 and 100 nM in resistant IGR-CaP1-R100. Cells were stained with Crystal Violet 2 weeks later. Data are represented as mean±SD. […] Representative cell colonies obtained in each condition is shown.
(§2) IGR-CaP1 and IGR-CaP1-R cells were plated in 6 well plates for 24 hours. Cells were pre-treated with 25 μM LY2157299 or vehicle for 72 hours, and then co-treated with LY2157299 and docetaxel (12 nM for parental cells, 100 nM for resistant cells). After 2 weeks, clones were methanol fixed and stained using Crystal violet (sigma). Clones were counted using ImageJ software.

parental IGR-CaP1 cells = assay: Colony formation (clonogenicity) assay, parental cells; format: cell-based, human; settings: 25 μM LY2157299 alone, 72 h pretreatment, stained 2 weeks later
Experimental: as §1, §2

[2] = test system: SHISA3 expression in IGR-CaP1 tumors; assay: SHISA3 mRNA expression by quantitative PCR in docetaxel-sensitive xenograft tumors; format: in vivo, nude athymic mice; settings: docetaxel vs vehicle
From the text: (§3) FIG. 1: Expression of SHISA3 in docetaxel-resistant prostate cancer cells and in other cancers A. Real-time qRT-PCR showing the inhibition of SHISA3 gene expression in docetaxel-resistant IGR-CaP1-R and PC3-R cells. B. Whole cell extracts of parental and drug-resistant cells were subjected to immunoblotting with antibodies specific for SHISA3 or β-actin (loading control). Arrows indicate specific bands corresponding to SHISA3, star indicates a non-specific band. C. […] D-E. SHISA3 mRNA was assessed by determining ΔCt in normal tissues and in several solid tumors. Results were normalized to the universal RNA included in each panel. In D, out of all the tested tissues for SHISA3 expression, only tissues with the highest expression were shown. In E, the bars represent the mean. P value was derived from the two-tailed Student's t test. F. Subcellular localization after transfection of SHISA3-Flag-GFP in HEK cells. Cells were analyzed by confocal microscopy. GFP stained the transfected cells, SHISA3 was labeled with anti-SHISA3 antibody (red) and nucleus was stained with Dapi. […] Secondary antibodies were used as followed: Alexa-568 for SHISA3 and Alexa-647 for Calnexin and GM130. G. SHISA3 mRNA expression was assessed in vivo on nude athymic mice models. […] SHISA3 expression has been obtained by quantitative PCR and normalized by its expression in a control sample of Universal RNA. […]

[3] = test system: SHISA3 expression in IGR-CaP1-R25 tumors; assay: SHISA3 mRNA expression by quantitative PCR in docetaxel-resistant xenograft tumors; format: in vivo, nude athymic mice; settings: docetaxel vs vehicle
From the text: as §3

[4] = test system: parental IGR-CaP1 and PC3 cells; assay: EMT induction by TGFβ1, immunoblot of SHISA3 and EMT markers; format: cell-based, human; settings: 10 ng/ml TGFβ1, 5 days
From the text: A. Schematic structure of SHISA3 and SHISA3-Flag sharing a signal peptide (black box), an amino-terminal CRD (blue box), a predicted transmembrane segment (TM), and a carboxy-terminal proline-rich region (Grey box). The position of the FLAG tag (red box) is indicated. B. SHISA3 and endogenous TGFβR2 interaction. Cells extracts from IGR-CaP1, PC3 and HEK cells transfected with SHISA3-Flag were immunoprecipitated with anti-TGFβR2, anti-EGFR, anti-Flag antibodies or IgG as control and analyzed by immunoblot using anti-TGFβR2, anti-EGFR and anti-SHISA3 antibodies. Input represents 10% of the IP. C. Co-localization of SHISA3 and TGFβR2 in cytoplasmic granules and speckles at the membrane. Subcellular localizations of SHISA3 and TGFβR2 were analyzed by confocal microscopy after co-transfection of SHISA3-Flag and HA-TGFβR2 in HEK cells using anti-SHISA3 and anti-TGFβR2 primary antibodies, and Alexa-568- and Alexa-647-conjugated secondary antibodies respectively. Nuclei were labeled with Dapi. Overlapped fluorescent signals (yellow) indicated co-localized proteins. D. SHISA3 and EMT markers expression 5 days after cell treatment with TGFβ1. […] Quantification of bands relative to beta actin is shown.
2,5.10^4 IGR-CaP1 cells and 5.10^4 PC3 cells were plated in 6-well plates for 24 hours then transiently transfected with 10 nM synthetic siRNA targeting SHISA3 gene (Stealth RNAi™, siSHISA3-94: HSS152694, siSHISA3-95: HSS152695, and siSHISA3-96: HSS152696) using lipofectamine RNAiMax (Invitrogen) or treated with 10 ng/ml TGFβ1. After 36 hours, a second treatment was performed in order to maintain EMT induction over 5 days. Negative controls were obtained by treating cells with siRNA negative controls (siNT) (Invitrogen) or TGFβ1 vehicle. Whole cell extracts were prepared in RIPA buffer complemented with proteases inhibitors (Roche) and phosphatase inhibitors (Sigma).
Fifty μg of lysates were used for Western-Blot probed with specific antibodies: SHISA3 (Abgent), E-cadherin (BD Biosciences, clone 36), N-Cadherin (BD Biosciences, Clone 32), β-catenin (Santa Cruz, clone 12F7), Vimentin (BD Pharmingen, clone RV202), Occludin (Life Technologies, Clone OC-3F10), Plakoglobin (Sigma-Aldrich, Clone 15F11), Snail (Cell Signaling, Clone C15D3), ZEB1 (Cell Signaling, D80D), EGFR (Cell Signaling, Clone D38B1), TGFβR2 (Santa Cruz, Clone E-6), Ubiquitin (Santa Cruz, Clone P4D1), Flag (Sigma, M2). β-actin (Sigma-Aldrich, Clone AC-15) was used as a loading control. Immunoblot analyses were performed using the enhanced chemoluminescence-based detection kit (Pierce).

## Cc1cccc(-c2nn3c(c2-c2ccnc4ccc(C(N)=O)cc24)CCC3)n1 [LY2157299]
[1]
  survival of resistant cells (colony formation): did not affect the survival
Parental IGR-CaP1 cells
  survival of parental cells (colony formation): did not affect the survival

## CC(=O)O[C@@]12CO[C@@H]1C[C@H](O)[C@@]1(C)C(=O)[C@H](O)C3=C(C)[C@@H](OC(=O)[C@H](O)[C@@H](NC(=O)OC(C)(C)C)c4ccccc4)C[C@@](O)([C@@H](OC(=O)c4ccccc4)[C@H]21)C3(C)C [docetaxel]
[2]
  SHISA3 gene expression in tumors: strong decrease
[3]
  SHISA3 gene expression in tumors: did not affect its expression

## TGFβ: TGFβ1 purchased from R&D Systems
[4]
  CDH1 expression: decrease
  CDH2 expression: increase
  VIM expression: increase
[4]; vs control cells
  SHISA3 expression: decrease
